Reference: US10206909B2, “3-(1H-pyrrolo[2,3-B]pyridin-2-yl)-1H-pyrazolo[4,3-B]pyridines and therapeutic uses thereof” (Samumed, LLC, priority 2015, dated 2019)

Experiments:
Assay type in all cases: cell-based
SW480 colon cancer cells = assay: Cell viability assay (CellTiter-Blue); conditions: Homo sapiens; for EC50: 96 h, SW480 cell viability, four days, CellTiter-Blue; for inhibition at 10 µM: given where EC50 >10 μM, SW480 viability, read-out: percent inhibition at 10 μM
Procedure, shortened: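 SW480 colon cancer cells (~2×10^3/well) exposed to 8-point 1:3 dilutions from 10 μM to 0.0045 μM for four days at 37 °C/5% CO2. Viability read by resazurin (CellTiter-Blue) fluorescence after ~3 h, Ex 560/Em 590 nm. EC50 from non-linear regression; percent inhibition at 10 μM given when EC50 >10 μM.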

IL-6 (THP-1 cells) = assay: IL-6 inhibition in LPS-stimulated THP-1 cells (HTRF); conditions: Homo sapiens; for EC50: THP-1 cells, LPS 500 ng/mL, 22 hours, IL6 HTRF; for inhibition at 10 µM: given where EC50 >10 μM, THP-1, IL6, read-out: percent inhibition at 10 μM
Procedure, shortened: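 THP-1 cells, pre-cultured 24 h in 1% FBS, were preincubated 2 h with compound over a 10-point 1:3 series from 10 μM (0.1% DMSO). They were then stimulated with 500 ng/mL LPS for 22 h at 37° C. IL-6 was read by HTRF 665/620 nm ratio, and EC50 was fitted by four-parameter regression against DMSO; above 10 μM, % inhibition at 10 μM is given.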

[1] = test system: Wnt activity (Sp5-Luc reporter, SW480 colon carcinoma cells); assay: Wnt activity screening assay: Sp5-Luc reporter gene assay in SW480 cells; conditions: Homo sapiens; for EC50: SW480 cells, overnight incubation; for inhibition at 10 µM: given where EC50 >10 μM, SW480, read-out: percent inhibition at 10 μM
Procedure, shortened: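 SW480 cells stably carrying Sp5-Luc reporter (eight TCF/LEF sites) plated at 4,000/well in 1% FBS medium with compound (10-point 1:3 series from 10 μM, 0.1% DMSO) overnight at 37 °C. BrightGlo luminescence normalized to DMSO; EC50 by four-parameter fit, else % inhibition at 10 μM.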

| SMILES | EC50 (SW480 colon cancer cells) | EC50 (IL-6 (THP-1 cells)) | EC50 [1] | inhibition at 10 µM (SW480 colon cancer cells) | inhibition at 10 µM [1] | inhibition at 10 µM (IL-6 (THP-1 cells)) |
| --- | --- | --- | --- | --- | --- | --- |
| c1ncc(-c2ccc3[nH]nc(-c4cc5c(N6CCCCC6)ccnc5[nH]4)c3n2)cn1 [Compound 195, 3-(4-(Piperidin-1-yl)-1H-pyrrolo[2,3-b]pyridin-2-yl)-5-(pyrimidin-5-yl)-1H-pyrazolo[4,3-b]pyridine] | > 10 µM | > 10 µM | > 10 µM | 22.9% | 12.6% | 26% |
| CN1CCN(c2ccnc3[nH]c(-c4n[nH]c5ccc(-c6cn[nH]c6)nc45)cc23)CC1 [Compound 635, 3-(4-(4-Methylpiperazin-1-yl)-1H-pyrrolo[2,3-b]pyridin-2-yl)-5-(1H-pyrazol-4-yl)-1H-pyrazolo[4,3-b]pyridine] | > 10 µM | > 10 µM | > 10 µM | 13.3% | 13.4% | 8.4% |
| Fc1ccccc1-c1ccnc2[nH]c(-c3n[nH]c4ccc(-c5cncc(CNCc6ccccc6)c5)nc34)cc12 [Compound 80, N-Benzyl-1-(5-(3-(4-(2-fluorophenyl)-1H-pyrrolo[2,3-b]pyridin-2-yl)-1H-pyrazolo[4,3-b]pyridin-5-yl)pyridin-3-yl)methanamine] | 2.06 µM | > 10 µM | > 10 µM |  | 29% | 18.2% |
| c1cnc2[nH]c(-c3n[nH]c4ccc(-c5cncnc5)nc34)cc2c1 [Compound 279, 5-(Pyrimidin-5-yl)-3-(1H-pyrrolo[2,3-b]pyridin-2-yl)-1H-pyrazolo[4,3-b]pyridine] | > 10 µM | 0.003 µM | > 10 µM | 14.3% | 8% |  |
| Fc1cccc(-c2ccnc3[nH]c(-c4n[nH]c5ccc(-c6cncc(OCc7ccccc7)c6)nc45)cc23)c1 [Compound 518, 5-(5-(Benzyloxy)pyridin-3-yl)-3-(4-(3-fluorophenyl)-1H-pyrrolo[2,3-b]pyridin-2-yl)-1H-pyrazolo[4,3-b]pyridine] | > 10 µM | > 10 µM | > 10 µM | 17.3% | 16.7% | 9.6% |
| CC(C)CC(=O)Nc1cncc(-c2ccc3[nH]nc(-c4cc5c(N6CCN(C)CC6)ccnc5[nH]4)c3n2)c1 [Compound 226, 3-Methyl-N-(5-(3-(4-(4-methylpiperazin-1-yl)-1H-pyrrolo[2,3-b]pyridin-2-yl)-1H-pyrazolo[4,3-b]pyridin-5-yl)pyridin-3-yl)butanamide] | 1.55 µM | 3.27 µM | 3.45 µM |  |  |  |

Now from value to molecule, other results behind:

| EC50 (SW480 colon cancer cells) | EC50 (IL-6 (THP-1 cells)) | EC50 [1] | SMILES | inhibition at 10 µM (SW480 colon cancer cells) | inhibition at 10 µM [1] | inhibition at 10 µM (IL-6 (THP-1 cells)) |
| --- | --- | --- | --- | --- | --- | --- |
| > 10 µM | 1.61 µM | > 10 µM | c1csc(-c2ccnc3[nH]c(-c4n[nH]c5ccc(-c6ccncc6)nc45)cc23)c1 [Compound 354, 5-(Pyridin-4-yl)-3-(4-(thiophen-2-yl)-1H-pyrrolo[2,3-b]pyridin-2-yl)-1H-pyrazolo[4,3-b]pyridine] | 39.8% | 14.6% |  |
| > 10 µM | 4.93 µM | > 10 µM | FC1(F)CCN(Cc2cncc(-c3ccc4[nH]nc(-c5cc6c(-c7cccnc7)ccnc6[nH]5)c4n3)c2)C1 [Compound 110, 5-(5-((3,3-Difluoropyrrolidin-1-yl)methyl)pyridin-3-yl)-3-(4-(pyridin-3-yl)-1H-pyrrolo[2,3-b]pyridin-2-yl)-1H-pyrazolo[4,3-b]pyridine] | 12.3% | 47.7% |  |
| > 10 µM | 0.006 µM | > 10 µM | Fc1ccccc1-c1ccnc2[nH]c(-c3n[nH]c4ccc(-c5ccccn5)nc34)cc12 [Compound 84, 3-(4-(2-Fluorophenyl)-1H-pyrrolo[2,3-b]pyridin-2-yl)-5-(pyridin-2-yl)-1H-pyrazolo[4,3-b]pyridine] | 16.5% | 3% |  |
